Source: patent US8409550B2, “Method for treating skin with retinoids and retinoid boosters” (Unilever Home & Personal Care, USA, Division of Conopco, …, priority 2000, dated 2013)
Like-named read-outs stand apart in the source and are kept apart here.

How the values were obtained:
[1] = target: transglutaminase (TGase I); assay: Transglutaminase (Tgase) ELISA assay in cultured keratinocytes with retinol and boosters; assay type: cell-based, human; settings: for IC20: IC20 (80% of control); for TG as % C Compd 1 / TG as % C, Compd 3 / TG as % C Compd 2: concentration one log below IC20; for TG as % C, Compd 3: Compound 3 alone
Method: For this reason, a transalutaminase (Tgase) assay was utilised.
Thus TGase I is a useful marker of epidermal keratinocyte differentiation with high TGase I levels indicating a more differentiated state. An ELISA based TGase I assay, using a TGase I antibody, was used to assess the state of differentiation of the cultured keratinocytes in the examples that follow.
Keratinocytes (cultured as described above) were plated in 96 well plates at a density of 4,000-5,000 cells per well in 200 μl media. After incubation for two to three days, or until cells are ˜50% confluent, the media was changed to media containing test compounds (five replicates per test). The cells were cultured for a further 96 hours after which time the media was aspirated and the plates stored at −70° C. Plates were removed from the freezer, and the cells were washed twice with 200 μl of 1×PBS. The cells were incubated for one hour at room temperature (R/T) with TBS/5% BSA (wash buffer, bovine serum albumin). Next the TGase primary antibody was added: 50 μl of monoclonal anti-Tgase I Ab B.C. diluted 1:2000 in wash buffer. The primary antibody was incubated for 2 hours at 37° C. and then rinsed 6× with wash buffer. Cells were then incubated with 50 μl of secondary antibody (Fab fragment, peroxidase conjugated anti-mouse IgG obtaining from Amersham) diluted 1:4,000 in wash buffer for two hours at 37° C., then rinsed three times with wash buffer. Following the rinse with washing buffer, the cells were rinsed 3× with PBS. For colourimetric development, the cells were incubated with 100 μl substrate solution (4 mg o-phenylenediamine and 3.3 μl 30% H2O2 in 10 ml 0.1M citrate buffer pH 5.0) for exactly five minutes, R/T, in darkness (under aluminum foil). The reaction was stopped by the addition of 50 μl 4 N H2SO4. […] Out of the five replicates, four were treated with both antibodies, the fifth one was use as a Tgase background control. Tgase levels were determined and expressed as percentage control.
A suspension of keratinocytes was prepared at a concentration of 3000 cells/200 μl/well in KGM medium (Used 3×10^5 cells/12 ml media in each microtitre plate)
200 μl of the keratinocyte suspension was transferred into each of the inner 60 wells only.
Each plate was incubated at 37° C. and 5% CO2 for 3 days or until cells are ˜50% confluent.
Stock solutions of the samples were prepared in DMSO.
The samples were diluted to desired concentration with the final assay concentration of DMSO being 0.1%.

ARAT = assay: Assay for ARAT activity, bovine RPE microsomes (to identify B1); assay type: biochemical; settings: for % Inhibition ARAT (100 jm): compound 100 jm
Method: (§1) 2.1 Isolation of RPE Microsomes (Modified from (1))
(§2) 50 frozen hemisected bovine eyecups, with the retina and aqueous humor removed were obtained from W. L. Lawson Co., Lincoln, Nebr., USA. The eyes were thawed overnight and the colored iridescent membrane was removed by peeling with forceps. Each eyecup was washed with 2× 0.5 mL cold buffer (0.1M PO4/1 mM DTT/0.25N sucrose, pH 7) by rubbing the darkly pigmented cells with an artist's brush or a rubber policeman. The cell suspension was added to the iridescent membranes and the suspension was stirred for several minutes in a beaker with a Teflon stir bar.
(§3) The cell homogenate was centrifuged for 30 min. at 20,000 g (Sorvaal model RC-5B centrifuge with an SS34 rotor in 2.5×10 cm tubes at 14,000 RPM). The resulting supernatant was subjected to further centrifugation for 60 min. at 150,000 g (Beckman model L80 Ultracentrifuge with an SW50.1 rotor in 13×51 mm tubes at 40,000 RPM). The resulting pellets were dispersed into ˜5 mL 0.1M PO4/5 mM DTT, pH 7 buffer using a Heat Systems Ultrasonics, Inc. model W185D Sonifier Cell Disrupter, and the resulting microsomal dispersion was aliquoted into small tubes and stored at −70° C. The protein concentrations of the microsomes were determined using the BioRad Dye binding assay, using BSA as a standard.
(§4) 2.3 Assay for ARAT and LRAT Activity (to Identify B1)
(§5) The procedure below was a modification of a method described in the literature (2). The following buffer was prepared and stored at 4° C.: 0.1M PO4 5 mM dithiothreitol, pH 7.0 (PO4/DTT). On the day of the assay, 2 mg BSA per mL of buffer was added to give a PO4/DTT/BSA working buffer. 1 mM retinol substrate was prepared in acetonitrile and stored in amber bottles under nitrogen gas at −20° C. Solutions of 4 mM Palmitoyl-CoA in working buffer (stored in aliquots) and 4 mM dilauroyl phosphatidyl choline in ethanol were prepared and stored at −20° C. Inhibitors were prepared as 10 mM stock solutions in H2O, ethanol, acetonitrile or DMSO. The quench solution was prepared using pure ethanol containing 50 μg/mL butylated hydroxytoluene (BHT), and a hexane solution containing 50 μg/mL BHT was used for the extractions.
The mixture was incubated for 5 min. at 37° C. to equilibrate the reaction temperature and then 5 μL 1 mM retinol was added. The vials were capped, vortexed for 5 seconds and incubated for 30-90 minutes at 37° C. The reaction was quenched by adding 0.5 mL ethanol/BHT. The retinoids were extracted by adding 3 mL hexane/BHT, vortexing the tubes for several seconds several times and centrifuging the tubes at low speed for 5 min. to quickly separate the layers. The upper hexane layer was removed into a clean vial, and the aqueous layer re-extracted with another 3 mL hexane/BHT, as described above. The hexane layers were combined, and the hexane evaporated by drying at 37° C. under a stream of nitrogen gas on a heated aluminum block. The dried residue was stored at −20° C. until HPLC analysis. The amount of retinyl palmitate and retinyl laurate was quantitated for ARAT and LRAT activity, respectively, by integration of the HPLC signal as described below.
Note that the incubation solution contains 40 μM acyl donor, 100 μM or less inhibitor, 10 uM retinol, approximately 30 μg/mL microsomal protein, and nearly 0.17 PO4/pH 7/5 mM DTT/2 mg/mL BSA. All steps subsequent to the addition of retinol were done in the dark or under amber lights.
Samples for retinoid quantitation by HPLC were prepared by dissolving the residue in each vial with 100 μL of methanol. […] Aliquots of 60 μL were injected immediately and analysed for retinoid content.
Two HPLC protocols were used for retinoid analysis.
These protocols were selected based on their ability to clearly resolve pertinent retinoid acids, alcohols, aldehydes, and/or esters for each assay and relative quickness of separation.

LRAT = target: T1, LRAT (Bos taurus, UniProt Q9BGL2); assay: Assay for LRAT activity, bovine RPE microsomes (to identify B1); assay type: biochemical; settings: for % Inhibition LRAT (100 jm): compound 100 jm
T1 construct: followed by approximately 15 μg of RPE microsomal protein; tissue W. L. Lawson Co., Lincoln, Nebr., USA (eyecups); host or cells: bovine retinal pigment epithelium microsomes
T1 sequence (Q9BGL2 1-230): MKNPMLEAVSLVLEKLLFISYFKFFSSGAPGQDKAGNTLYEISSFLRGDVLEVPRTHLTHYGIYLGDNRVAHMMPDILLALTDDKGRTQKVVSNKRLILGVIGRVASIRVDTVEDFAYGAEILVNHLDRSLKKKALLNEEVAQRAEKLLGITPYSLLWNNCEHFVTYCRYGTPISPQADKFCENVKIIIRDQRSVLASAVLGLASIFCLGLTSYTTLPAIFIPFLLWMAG
Method: as §1, §2, §3, §4, §5
The mixture was incubated for 5 min. at 37° C. to equilibrate the reaction temperature and then 5 μL 1 mM retinol was added. The vials were capped, vortexed for 5 seconds and incubated for 30-90 minutes at 37° C. The reaction was quenched by adding 0.5 mL ethanol/BHT. The retinoids were extracted by adding 3 mL hexane/BHT, vortexing the tubes for several seconds several times and centrifuging the tubes at low speed for 5 min. to quickly separate the layers. The upper hexane layer was removed into a clean vial, and the aqueous layer re-extracted with another 3 mL hexane/BHT, as described above. The hexane layers were combined, and the hexane evaporated by drying at 37° C. under a stream of nitrogen gas on a heated aluminum block. The dried residue was stored at −20° C. until HPLC analysis. The amount of retinyl palmitate and retinyl laurate was quantitated for ARAT and LRAT activity, respectively, by integration of the HPLC signal as described below. […]
Samples for retinoid quantitation by HPLC were prepared by dissolving the residue in each vial with 100 μL of methanol. […] Aliquots of 60 μL were injected immediately and analysed for retinoid content. […]

[2] = B1 table, booster concentration which with 10^−7 M retinol inhibits TGase by 50%, same values in the 19th table (Molar), read-out: Overall TG (IC 50)
[3] = compound tested individually in the presence of 10^-7 M retinol
[4] = Tgase inhibition, compound tested individually in the presence of 10^-7 M retinol, read-out: IC50
[5] = Compound 1 alone, in the presence of 10^-7M retinol
[6] = B5 table, with 10^−7 M retinol, read-out: Overall TG (IC 50)
[7] = in the presence of 10^-7M retinol
[8] = Compound 2 alone, in the presence of 10^-7M retinol

Alpha-Ionone showed an IC50 [1, 2] of 927 µM, an IC20 [1, 3] of 142 µM and an IC50 [1, 4] of 927 µM. The “TG as % C Compd 1” value ([1]; compound 1 alone, with retinol) was 101 % C.
In the case of […]-Ionone, the “TG as % C Compd 1” value [1, 5] is reported as 68 % C.
In the case of `Oc1ccc2ccccc2n1` [Hydroxyquinoline (Carbostyril), 2-Hydroxyquinoline(Carbostyril)], the IC50 [1, 6] is reported as 364 µM, the “TG as % C, Compd 3” value [1, 7] is reported as 95 % C and the IC20 [1, 3] is reported as 170 µM. For the same molecule, the IC50 [1, 4] was 364 µM.
`O=c1ccc2ccccc2o1` [Coumarin] was tested, and the “TG as % C, Compd 3” value [1, 7] was 80 % C and the “TG as % C Compd 2” value ([1]; compound 2 alone, with retinol) was 96 % C.
With `CCCCCCC(O)CCCCCCCCCCC(=O)O` (centres unmarked) [12-Hydroxystearic Acid] the “TG as % C, Compd 3” value [1, 7] was 95 % C, the IC50 ([1]; Homo sapiens, Keratinocyte, B4 table, with 10^−7 M retinol, read-out: Overall TG (IC 50)) was 29.1 µM and the IC20 [1, 3] was 14.5 µM.
For Oleyl Betaine, the “% Inhibition ARAT (100 jm)” value (ARAT) was 47%, the IC50 [1, 2] was 28 µM and the “TG as % C Compd 1” value [1, 5] was 62 % C. The IC20 [1, 3] was 10.8 µM, the IC50 [1, 4] was 28 µM and the “TG as % C Compd 1” value ([1]; compound 1 alone, with retinol, listed as Oleoyl beatine) was 96 % C. The “TG as % C Compd 1” value ([1]; compound 1 alone, with retinol, listed as Oleoyl betaine) was 99.5 % C.
For `O=C1C[C@@H](c2ccc(O)cc2)Oc2cc(O)cc(O)c21` [Naringenin], the “% Inhibition ARAT (100 jm)” value (ARAT) was 33%, the “TG as % C, Compd 3” value [1, 7] was 94 % C and the “TG as % C Compd 1” value ([1]; compound 1 alone, with retinol) was 95 % C.
With Castor Oil MEA the IC50 [1, 2] was 32.5 µM, the IC50 [1, 4] was 32.5 µM and the “TG as % C Compd 1” value ([1]; compound 1 alone, with retinol) was 110 % C. The “TG as % C Compd 1” value ([1]; compound 1 alone, with retinol, listed as Caster oil MEA) was 96 % C.
For `CC1=C(/C=C/C(C)=C/C=C/C(C)=C/CO)C(C)(C)CCC1` [retinol, All-trans-retinol, reference compound], the “inhibition of transglutaminase production (maximal)” value ([1]; 1 μM retinoid, day 2, keratinocytes 4000 cells/well) was 55%.
`CC/C=C\C/C=C\C/C=C\CCCCCCCC(=O)O` [Linolenic Acid] was tested, and the “TG as % C, Compd 3” value [1, 7] was 208 % C and the IC20 [1, 3] was 121 µM.
`CCCCC/C=C\C/C=C\CCCCCCCC(=O)NCCO` [Linoleoyl Monoethanolamide] showed an IC50 [1, 2] of 16.1 µM, an IC20 [1, 3] of 14.8 µM and an IC50 [1, 4] of 16.1 µM.
`CCCCCCCCCCCCCCCC(=O)NCCO` [Palmitamide Monoethanolamide] was tested, and the “TG as % C, Compd 3” value [1, 7] was 95 % C.
`CCCC(O)CCC1C(C)CCCC1(C)C` (centres unmarked) [Timberol] was tested, and the “% Inhibition LRAT (100 jm)” value (LRAT) was 33%.
In the case of `O=C1CCc2ccccc2N1`, the “TG as % C Compd 2” value [1, 8] is reported as 90 % C and the “TG as % C, Compd 3” value [1, 7] is reported as 90 % C.
In the case of Delta-Damascone, the “% Inhibition LRAT (10 jm)” value (LRAT; compound 10 jm) is reported as 64% and the “% Inhibition LRAT (100 jm)” value (LRAT) is reported as 95%.
In the case of `CC(/C=C/C=C(\C)C(=O)O)=C\C=C\C=C(C)\C=C\C=C(/C)C(=O)O` [Crocetin], the “% Inhibition ARAT (10 jm)” value (ARAT; compound 10 jm) is reported as 15%, the “% Inhibition ARAT (100 jm)” value (ARAT) is reported as 34% and the “TG as % C, Compd 3” value [1, 7] is reported as 90 % C. The IC20 [1, 3] was 25.2 µM.
In the case of `CCCCCCCCCCCCCC(=O)N(C)CC(=O)O` [Myristoyl Sarcosine], the “% Inhibition ARAT (100 jm)” value (ARAT) is reported as 41% +/− 14.
With Dimethyl imidazolinone the “TG as % C Compd 2” value [1, 8] was 87 % C and the “TG as % C, Compd 3” value [1, 7] was 87 % C.
In the case of `CCCCC/C=C\C/C=C\C/C=C\C/C=C\CCCC(=O)[O-].[Na+]` [Arachidonic Acid (Na+ salt)], the “TG as % C, Compd 3” value [1, 7] is reported as 78 % C.
In the case of `CCCCCCCCCCCC(=O)N(C)CC(=O)O` [Lauroyl Sarcosine], the “% Inhibition ARAT (100 jm)” value (ARAT) is reported as 20%.
With `CC(C)=CCCC(C)=CC=O` [Citral] the “% Inhibition ARAT (100 jm)” value (ARAT) was 20%.
With Gamma-Methyl Ionone the “% Inhibition LRAT (100 jm)” value (LRAT) was 38%.
In the case of `CC(C)=CCCC(C)CCO` (centres unmarked) [Citronellol], the “% Inhibition ARAT (100 jm)” value (ARAT) is reported as 30%.
`CCCCCCCCCCCC1=NCCN1CCO` [Lauryl Hydroxyethylimidazoline] was tested, and the IC50 [1, 6] was 0.467 µM, the “TG as % C, Compd 3” value [1, 7] was 52 % C and the IC20 [1, 3] was 0.269 µM. For the same molecule, the IC50 [1, 4] was 0.467 µM, the “TG as % C Compd 2” value ([1]; compound 2 alone, with retinol) was 73 % C and the “TG as % C Compd 2” value ([1]; compound 2 alone, with retinol, listed as Lauryl hydorxyimidazoline) was 106 % C. For the same molecule, the “TG as % C Compd 2” value ([1]; compound 2 alone, with retinol, listed as Lauryl hydroxyethylimiazoline) was 98 % C.
`CC(=O)c1cc2c(cc1C)C(C)(C)C(C)CC2(C)C` (centres unmarked) [Tonalid] was tested, and the “% Inhibition ARAT (100 jm)” value (ARAT) was 50%.
In the case of `CC(=O)c1cc2c(cc1C)C(C)(C)[C@H](C)[C@H]2C(C)C` [Traseolide], the “% Inhibition ARAT (100 jm)” value (ARAT) is reported as 41%.
With `CCCCC/C=C/C/C=C/CCCCCCCC(=O)NC(C)c1ccccc1` (centres unmarked) [Melinamide, reference compound] the “% Inhibition ARAT (100 jm)” value (ARAT) was 64% +/− 15.
